{
  "source": "the supplement of paper PMC10307832",
  "experiment_in_all_cases": "relative viability (nuclei count vs DMSO), 5 days (fraction); higher = more cells survive",
  "key": {"Linifanib + Alpelisib": {"compound": "Cc1ccc(F)c(NC(=O)Nc2ccc(-c3cccc4[nH]nc(N)c34)cc2)c1 [Linifanib] + Cc1nc(NC(=O)N2CCC[C@H]2C(N)=O)sc1-c1ccnc(C(C)(C)C(F)(F)F)c1 [Alpelisib] (partner 2 µM)", "procedure,_shortened": "(§1)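 Lung cancer cell lines were pin-tool dosed in 1536-well plates on the day after seeding, with either a lone drug or a fixed anchor-drug dose plus five library-drug doses (not always all listed) in √10 steps. Nuclei were counted on 4× images after 5 days. Relative viability is the ratio of treated-well to vehicle-well nuclei counts, with each value a median of duplicate plates.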"}, "Linifanib + Palbociclib": {"compound": "Cc1ccc(F)c(NC(=O)Nc2ccc(-c3cccc4[nH]nc(N)c34)cc2)c1 [Linifanib] + CC(=O)c1c(C)c2cnc(Nc3ccc(N4CCNCC4)cn3)nc2n(C2CCCC2)c1=O [Palbociclib] (partner 0.5 µM)", "procedure,_shortened": "as §1"}, "Linifanib + Pictilisib": {"compound": "Cc1ccc(F)c(NC(=O)Nc2ccc(-c3cccc4[nH]nc(N)c34)cc2)c1 [Linifanib] + CS(=O)(=O)N1CCN(Cc2cc3nc(-c4cccc5[nH]ncc45)nc(N4CCOCC4)c3s2)CC1 [Pictilisib] (partner 1 µM)", "procedure,_shortened": "as §1"}, "Linifanib + Dasatinib": {"compound": "Cc1ccc(F)c(NC(=O)Nc2ccc(-c3cccc4[nH]nc(N)c34)cc2)c1 [Linifanib] + Cc1nc(Nc2ncc(C(=O)Nc3c(C)cccc3Cl)s2)cc(N2CCN(CCO)CC2)n1 [Dasatinib] (partner 0.075 µM)", "procedure,_shortened": "as §1"}, "Linifanib + Trametinib": {"compound": "Cc1ccc(F)c(NC(=O)Nc2ccc(-c3cccc4[nH]nc(N)c34)cc2)c1 [Linifanib] + CC(=O)Nc1cccc(-n2c(=O)n(C3CC3)c(=O)c3c(Nc4ccc(I)cc4F)n(C)c(=O)c(C)c32)c1 [Trametinib] (partner 0.02 µM)", "procedure,_shortened": "as §1"}, "Linifanib + Lapatinib": {"compound": "Cc1ccc(F)c(NC(=O)Nc2ccc(-c3cccc4[nH]nc(N)c34)cc2)c1 [Linifanib] + CS(=O)(=O)CCNCc1ccc(-c2ccc3ncnc(Nc4ccc(OCc5cccc(F)c5)c(Cl)c4)c3c2)o1 [Lapatinib] (partner 2 µM)", "procedure,_shortened": "as §1"}},
  "data": [
    {"cell line": "NCI-H3122", "values": [
      {"measurement": "relative viability", "setting": "Linifanib + Alpelisib; first compound 0.03162 µM", "value": 0.761},
      {"measurement": "relative viability", "setting": "Linifanib + Alpelisib; first compound 0.1 µM", "value": 0.783},
      {"measurement": "relative viability", "setting": "Linifanib + Alpelisib; first compound 0.3162 µM", "value": 0.786},
      {"measurement": "relative viability", "setting": "Linifanib + Palbociclib; first compound 0.03162 µM", "value": 0.19},
      {"measurement": "relative viability", "setting": "Linifanib + Palbociclib; first compound 0.1 µM", "value": 0.196},
      {"measurement": "relative viability", "setting": "Linifanib + Palbociclib; first compound 0.3162 µM", "value": 0.179},
      {"measurement": "relative viability", "setting": "Linifanib + Pictilisib; first compound 0.03162 µM", "value": 0.598},
      {"measurement": "relative viability", "setting": "Linifanib + Pictilisib; first compound 0.1 µM", "value": 0.648},
      {"measurement": "relative viability", "setting": "Linifanib + Pictilisib; first compound 0.3162 µM", "value": 0.577},
      {"measurement": "relative viability", "setting": "Linifanib + Dasatinib; first compound 0.03162 µM", "value": 0.908},
      {"measurement": "relative viability", "setting": "Linifanib + Dasatinib; first compound 0.1 µM", "value": 0.908},
      {"measurement": "relative viability", "setting": "Linifanib + Dasatinib; first compound 0.3162 µM", "value": 0.877},
      {"measurement": "relative viability", "setting": "Linifanib + Trametinib; first compound 0.03162 µM", "value": 0.273},
      {"measurement": "relative viability", "setting": "Linifanib + Trametinib; first compound 0.1 µM", "value": 0.251},
      {"measurement": "relative viability", "setting": "Linifanib + Trametinib; first compound 0.3162 µM", "value": 0.19},
      {"measurement": "relative viability", "setting": "Linifanib + Lapatinib; first compound 0.03162 µM", "value": 1.11},
      {"measurement": "relative viability", "setting": "Linifanib + Lapatinib; first compound 0.1 µM", "value": 1.11},
      {"measurement": "relative viability", "setting": "Linifanib + Lapatinib; first compound 0.3162 µM", "value": 0.922}
    ]}
  ]
}
